# From patent US20030187056A1, “Live cell procedures to identify to identify compounds modulating intracellular distribution of phosphodiesterase( pde) enzymes” (priority 2000, published 2003)
# Where two headings read alike, the source gives them in different places.
# Key:
# HSPDE4A1-EGFP [1] = biological target: T1, HSPDE4A1-EGFP (Homo sapiens, UniProt P27815); assay: Competitive assay: reversal of Rolipram-induced spot dispersal, HSPDE4A1-EGFP CHO cells; type: cell-based; details: yes/no
# T1 construct: the ca. 1.95 kb coding region of HSPDE4A1 (GenBank Acc.no. U97584) is amplified; expressed in transfected cells
# T1 sequence (P27815 1-647 isoform P27815-4): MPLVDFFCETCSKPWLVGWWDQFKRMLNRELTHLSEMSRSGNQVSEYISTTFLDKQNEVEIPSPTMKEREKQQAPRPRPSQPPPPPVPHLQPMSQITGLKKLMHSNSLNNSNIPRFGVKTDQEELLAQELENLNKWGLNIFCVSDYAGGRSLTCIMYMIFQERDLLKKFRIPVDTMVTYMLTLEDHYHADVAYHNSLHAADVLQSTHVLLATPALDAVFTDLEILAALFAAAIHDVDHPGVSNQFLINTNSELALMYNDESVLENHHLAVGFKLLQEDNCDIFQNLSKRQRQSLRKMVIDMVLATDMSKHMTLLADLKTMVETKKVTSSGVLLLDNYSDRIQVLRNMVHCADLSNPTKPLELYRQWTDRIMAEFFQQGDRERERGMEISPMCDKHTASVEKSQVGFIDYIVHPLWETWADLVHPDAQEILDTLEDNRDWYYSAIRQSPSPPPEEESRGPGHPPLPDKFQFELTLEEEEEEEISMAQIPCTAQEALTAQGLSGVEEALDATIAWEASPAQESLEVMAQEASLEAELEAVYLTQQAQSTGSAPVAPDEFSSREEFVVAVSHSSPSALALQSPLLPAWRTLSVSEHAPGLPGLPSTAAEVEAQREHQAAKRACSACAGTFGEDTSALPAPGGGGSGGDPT
# HSPDE4A4catD-EGFP = biological target: T2, HSPDE4A4catD-EGFP (Homo sapiens, UniProt P27815+Q08499); type: cell-based
# T2 construct: the 3′-end catalytic region of HSPDE4D isoforms (nucleotides 700-2019 of HSPDE4D3 cDNA); HSPDE4A4 N-terminal fragment (nucleotides 1-1023 of L20965); expressed in transfected cells
# T2 sequence (P27815+Q08499 fused with the stated changes, form open): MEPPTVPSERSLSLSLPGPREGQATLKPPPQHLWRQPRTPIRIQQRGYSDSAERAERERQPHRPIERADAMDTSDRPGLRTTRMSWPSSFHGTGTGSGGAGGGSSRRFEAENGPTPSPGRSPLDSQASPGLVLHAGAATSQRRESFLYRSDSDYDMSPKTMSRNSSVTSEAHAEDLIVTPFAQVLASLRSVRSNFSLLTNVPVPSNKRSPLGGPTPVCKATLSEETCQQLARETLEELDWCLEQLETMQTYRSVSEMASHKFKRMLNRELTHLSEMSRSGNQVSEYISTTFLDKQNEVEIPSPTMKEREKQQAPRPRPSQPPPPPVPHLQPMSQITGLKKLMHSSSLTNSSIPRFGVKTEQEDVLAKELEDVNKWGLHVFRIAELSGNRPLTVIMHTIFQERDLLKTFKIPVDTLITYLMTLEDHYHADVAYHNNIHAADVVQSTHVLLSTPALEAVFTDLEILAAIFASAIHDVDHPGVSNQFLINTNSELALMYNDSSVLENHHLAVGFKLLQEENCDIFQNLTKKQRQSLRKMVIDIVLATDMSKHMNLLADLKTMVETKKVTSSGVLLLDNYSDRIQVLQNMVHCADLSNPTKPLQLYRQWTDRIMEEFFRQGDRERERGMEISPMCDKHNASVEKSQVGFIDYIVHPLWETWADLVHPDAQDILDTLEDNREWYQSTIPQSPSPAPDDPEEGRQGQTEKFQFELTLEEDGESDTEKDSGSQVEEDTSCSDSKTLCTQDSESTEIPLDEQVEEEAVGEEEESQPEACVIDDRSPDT
# Description: Transiently transfected or stably transfected (non-clonal) cells are allowed to adhere to chambered coverglasses in HAM's F12 medium containing 10% FBS.
# HSPDE4A4-H506N-EGFP = biological target: T3, HSPDE4A4-H506N-EGFP (Homo sapiens, UniProt P27815, H506N); assay: Spot formation in CHO cells transfected with HSPDE4A4-H506N-EGFP; type: cell-based; details: clonal CHO, 23.5 hours
# T3 construct: expressed in transfected cells
# T3 sequence (P27815 whole entry H506N): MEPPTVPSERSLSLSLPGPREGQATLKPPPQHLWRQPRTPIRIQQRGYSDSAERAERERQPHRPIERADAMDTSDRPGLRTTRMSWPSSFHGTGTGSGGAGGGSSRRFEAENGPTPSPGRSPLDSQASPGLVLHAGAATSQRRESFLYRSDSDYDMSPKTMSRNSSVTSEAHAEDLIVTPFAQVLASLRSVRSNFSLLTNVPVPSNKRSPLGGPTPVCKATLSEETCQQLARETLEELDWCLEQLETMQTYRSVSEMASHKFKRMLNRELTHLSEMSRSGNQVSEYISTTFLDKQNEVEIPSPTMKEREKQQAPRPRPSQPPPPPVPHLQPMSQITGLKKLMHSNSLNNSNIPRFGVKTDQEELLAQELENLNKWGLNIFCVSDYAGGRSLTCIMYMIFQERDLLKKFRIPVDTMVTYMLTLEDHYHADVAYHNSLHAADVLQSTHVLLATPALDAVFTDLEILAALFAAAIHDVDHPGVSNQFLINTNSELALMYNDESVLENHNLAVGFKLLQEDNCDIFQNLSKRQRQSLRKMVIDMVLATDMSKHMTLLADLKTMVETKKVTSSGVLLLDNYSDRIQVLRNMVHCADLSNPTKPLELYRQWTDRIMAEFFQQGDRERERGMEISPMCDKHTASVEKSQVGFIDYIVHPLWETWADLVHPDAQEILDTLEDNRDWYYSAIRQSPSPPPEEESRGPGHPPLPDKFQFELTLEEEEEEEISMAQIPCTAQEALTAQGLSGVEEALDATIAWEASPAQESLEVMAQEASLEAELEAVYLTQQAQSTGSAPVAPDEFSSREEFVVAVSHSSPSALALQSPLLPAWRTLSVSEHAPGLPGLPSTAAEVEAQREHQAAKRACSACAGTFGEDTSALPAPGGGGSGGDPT
# Procedure: (§1) The cells are then fixed with 4% formaldehyde buffer (pH7) for 1 hour, washed with PBS and stained with 1 μM Hoechst 33258 in PBS for 10 minutes at 25° C., then washed twice in PBS. Automated images are collected and analysed for the number of spots per cell as described in Example 2.
# as §1, with “Cells are grown in HAM's F12 medium plus 10% FBS plus various concentrations of inhibitors for 23.5 hours. The” for “The”
# PDE4 [2] = details: cited from earlier work
# PDE4 [3] = tested on: T4, PDE4; details: Saldou et al., 1998; read-out: IC50 against PDE4; cited from earlier work
# T4 construct: other: Saldou et al., 1998; Such an enzyme preparation may be obtained from cells transfected with and expressing the PDE4 enzyme chosen
# PDE3 = PDE3 inhibition (literature values, PDE3/PDE4 specificity); type: biochemical; details: measure of specificity
# Description: These compounds are termed specific to PDE4, since they inhibit other PDEs either weakly or not at all. The inverse ratio between IC50 of a compound to PDE4s versus its inhibition of other cAMP-degrading PDEs, such as PDE3s is often used as a measure of specificity.
# HSPDE4A1-EGFP [4] = biological target: T1, HSPDE4A1-EGFP; assay: Spot dispersal in CHO cells transfected with HSPDE4A1-EGFP; type: cell-based
# Procedure: (§2) […] The cells are then fixed with 4% formalin buffer (pH7) for 1 hour, washed with PBS and stained with 1 μM Hoechst 33258 in PBS for 10 minutes at 25° C., then washed twice in PBS. Automated images are collected and analysed for the number of spots per cell as described in Example 2.
# as §2
structure (smiles),measurement,setting,value
O=c1c2cccnc2n(-c2cccc([N+](=O)[O-])c2)c(=O)n1Cc1ccncc1 [RS25344],Reversal of Rolipram-induced removal of PDE4A1 spots,HSPDE4A1-EGFP [1],no
same,spot formation (in words),"HSPDE4A4catD-EGFP; 1 μM RS25344 32 hours, stably transfected, 10 μM Rolipram 26 hours, transiently transfected",Many cells in this stable population respond by forming pairs of bright spots
same,time until spots begin to be visible,HSPDE4A4catD-EGFP; after addition of 1 μM RS25344,about 6 hours
same,EC50,HSPDE4A4-H506N-EGFP,125 nM
same,IC50,"PDE4 [2]; literature values quoted in Example 5 (Saldou 1998; Ahluwalia 1982; Rubin 1991), read-out: IC50 against PDE4",0.28 nM
same,Inhibition of PDE4 catalytic activity,PDE4 [2]; yes/no,yes
same,IC50,PDE4 [3],0.28 nM
same,(IC50 PDE3)/(IC50 PDE4),PDE3,"1,170,000"
same,dispersal of PDE4A1 spots (in words),"HSPDE4A1-EGFP [4]; Rolipram 2 micromolar 2 hours, others over the ranges tested",reduce PDE4A1 spot numbers
same,EC50,"HSPDE4A1-EGFP [4]; clonal CHO, 23.5 hours, estimated",5 nM
same,Removal of PDE4A1 spots,HSPDE4A1-EGFP [4]; yes/no,yes
